Laboratory results as given in patent US9512139B2, “Conformationally constrained, fully synthetic macrocyclic compounds” (POLYPHOR AG, priority 2009, dated 2016).
Like-named read-outs stand apart in the source and are kept apart here. One block for each compound: values may come before it.

Key:
[1] = Metabolic stability assay, human microsomes; format: in vitro ADME; conditions: human, microsomes; for Metabolic Stability 60 min hum [% remain.]: 1 h
[2] = Metabolic stability assay, CD-1 mouse microsomes; format: in vitro ADME; conditions: CD-1, mouse, microsomes; for Metabolic Stability 60 min mouse [% remain.]: 1 h
[3] = amide bond
in vitro [4] = format: in vitro ADME, mouse; conditions: both, CD-1, mouse, plasma, 10 µM; for Plasma Stability 240 min mouse [% remain.]: 4 h
in vitro [5] = format: in vitro ADME, human; conditions: human, plasma, 10 µM; for Plasma Stability 240 min hum [% remain.]: 4 h
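Wherever Plasma Stability 240 min mouse [% remain.] is given: sodium citrate stabilized mouse plasma, parent compound quantified by HPLC/MS/MS relative to its peak area at time zero, run in triplicate.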
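Wherever Plasma Stability T½ [min] mouse is given: sodium citrate stabilized mouse plasma, parent compound quantified by HPLC/MS/MS relative to its peak area at time zero, run in triplicate.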

half-life at 10 µM ([1]; both sexes): 0.6 h
Metabolic Stability 60 min hum [% remain.] ([1]; both, 10 µM): 37 % remain.
half-life at 10 µM ([2]; both sexes): 0.95 h
Metabolic Stability 60 min mouse [% remain.] ([2]; both, 10 µM): 55 % remain.
Plasma Stability T½ [min] mouse (in vitro [4]): > 240 min
Plasma Stability 240 min mouse [% remain.] (in vitro [4]): 65 % remain.
Plasma Stability T½ [min] hum (in vitro [5]): > 240 min
Plasma Stability 240 min hum [% remain.] (in vitro [5]): 100 % remain.
Compound: CN1CCC[C@H](NC(=O)OCc2ccccc2)C(=O)N[C@@H]2C[C@@H](COc3ccc(F)cc3C1=O)N(C(=O)OC(C)(C)C)C2 [Ex. 403, tert-butyl (1S,15S,18R)-15-{[(benzyloxy)carbonyl]amino}-7-fluoro-11-methyl-10,16-dioxo-3-oxa-11,17,20-triazatricyclo[16.2.1.0^4,9]henicosa-4,6,8-triene-20-carboxylate]
ring closure, yield of all isomers ([3]; from CN(CCC[C@H](NC(=O)OCc1ccccc1)C(=O)O)C(=O)c1cc(F)ccc1OC[C@@H]1C[C@@H](N)CN1C(=O)OC(C)(C)C, FDPP, DMF, 1.0 mM): 73%

Compound: CN1C(=O)c2cc(F)ccc2OC[C@@H]2CN(C(=O)OC(C)(C)C)CCN2C(=O)CC[C@H]1C(=O)OCc1ccccc1
ring closure, yield of all isomers ([3]; from CN(C(=O)c1cc(F)ccc1OC[C@@H]1CN(C(=O)OC(C)(C)C)CCN1)[C@@H](CCC(=O)O)C(=O)OCc1ccccc1, T3P, CH2Cl2, 0.57 mM, 25.0 °C, 20.0 h): 77%

Compound: O=C(N[C@H]1CCCNC(=O)c2cccc(c2)OC[C@@H]2C[C@H](Oc3ccccc3)CN2C1=O)OCc1ccccc1
ring closure, yield of all isomers ([3]; from O=C(N[C@@H](CCCNC(=O)c1cccc(OC[C@@H]2C[C@H](Oc3ccccc3)CN2)c1)C(=O)O)OCc1ccccc1, HATU, HOAt, i-Pr2NEt, DMF, 0.98 mM, 25.0 °C, 20.0 h): 88%

Compound: CN1CC(=O)N2C[C@@H](NC(=O)OC(C)(C)C)C[C@H]2COc2ccc(F)cc2C(=O)N(C)[C@@H](C(=O)OCc2ccccc2)CCC1=O
ring closure, yield of all isomers ([3]; from CNCC(=O)N1C[C@@H](NC(=O)OC(C)(C)C)C[C@H]1COc1ccc(F)cc1C(=O)N(C)[C@H](CCC(=O)O)C(=O)OCc1ccccc1, T3P / i-Pr2NEt, CH2Cl2, 10.8 mM): 92%

Compound: CN1CC(=O)N2C[C@H](NC(=O)OC(C)(C)C)C[C@H]2COc2ccc(F)cc2C(=O)N(C)[C@@H](C(=O)OCc2ccccc2)CCC1=O
ring closure, yield of all isomers ([3]; from CNCC(=O)N1C[C@H](NC(=O)OC(C)(C)C)C[C@H]1COc1ccc(F)cc1C(=O)N(C)[C@H](CCC(=O)O)C(=O)OCc1ccccc1, T3P / i-Pr2NEt, CH2Cl2, 5.08 mM): 60%

Compound: C[C@H]1C(=O)NCCC(=O)N2C[C@H](NC(=O)c3ccccc3)C[C@H]2COc2cccc(c2)C(=O)N1C
ring closure, yield of all isomers ([3]; from *CNC(=O)CCCOc1cc(OC)c(CN(C(=O)c2ccccc2)[C@@H]2C[C@@H](COc3cccc(C(=O)N(C)[C@@H](C)C(=O)O)c3)N(C(=O)CCN)C2)c(OC)c1, FDPP, i-Pr2NEt, DMF, 67.0 mM, 30.0 h, 7 steps): 16%

Compound: CN1C(=O)c2cccc(c2)OC[C@@H]2C[C@H](NC(=O)OC(C)(C)C)CN2C(=O)COC[C@H]1C(=O)OCc1ccccc1
ring closure, yield of all isomers ([3]; from CN(C(=O)c1cccc(OC[C@@H]2C[C@H](NC(=O)OC(C)(C)C)CN2)c1)[C@@H](COCC(=O)O)C(=O)OCc1ccccc1, FDPP, DMF, 5.2 mM): 80%

Compound: CN1CCC[C@H](NC(=O)OCc2ccccc2)C(=O)N2C[C@@H](Oc3ccccc3)C[C@H]2COc2cccc(c2)C1=O
ring closure, yield of all isomers ([3]; from CN(CCC[C@H](NC(=O)OCc1ccccc1)C(=O)O)C(=O)c1cccc(OC[C@@H]2C[C@H](Oc3ccccc3)CN2)c1, FDPP, DMF, 5.7 mM, 25.0 °C, 20.0 h): 63%

Compound: CN1C[C@H](NC(=O)OCc2ccccc2)C(=O)N(C)CC(=O)N2C[C@H](NC(=O)OCC[Si](C)(C)C)C[C@H]2COc2cccc(c2)C1=O
ring closure, yield of all isomers ([3]; from CN(C[C@H](NC(=O)OCc1ccccc1)C(=O)N(C)CC(=O)O)C(=O)c1cccc(OC[C@@H]2C[C@@H](NC(=O)OCC[Si](C)(C)C)CN2)c1, FDPP, DMF, 10.16 mM): 68%

Compound: CN1CCC[C@H](NC(=O)OCc2ccccc2)C(=O)N2C[C@@H](OCc3ccc(Br)cc3)C[C@H]2COc2cccc(c2)C1=O
ring closure, yield of all isomers ([3]; from CN(CCC[C@H](NC(=O)OCc1ccccc1)C(=O)O)C(=O)c1cccc(OC[C@@H]2C[C@H](OCc3ccc(Br)cc3)CN2)c1, T3P, CH2Cl2, 5.5 mM, 25.0 °C, 20.0 h): 57%

Compound: CC(C)(C)OC(=O)N[C@H]1CCCCSc2cccc(c2)OC[C@@H]2C[C@H](OCc3ccc(Br)cc3)CN2C1=O
ring closure, yield of all isomers ([3]; from CC(C)(C)OC(=O)N[C@@H](CCCCSc1cccc(OC[C@@H]2C[C@H](OCc3ccc(Br)cc3)CN2)c1)C(=O)O, T3P, i-Pr2NEt, CH2Cl2, 2.0 mM, 25.0 °C, 4.0 h): 99%

Compound: CN1CC(=O)N2CCN(C(=O)OC(C)(C)C)C[C@@H]2COc2ccc(F)cc2C(=O)N(C)[C@@H](C(=O)OCc2ccccc2)CCC1=O
ring closure, yield of all isomers ([3]; from CNCC(=O)N1CCN(C(=O)OC(C)(C)C)C[C@@H]1COc1ccc(F)cc1C(=O)N(C)[C@H](CCC(=O)O)C(=O)OCc1ccccc1, T3P / i-Pr2NEt, CH2Cl2, 10.4 mM): 96%

Compound: CN1CCC(=O)N2C[C@H](NC(=O)OC(C)(C)C)C[C@H]2COc2ccc(F)cc2C(=O)N(C)[C@H](C(=O)OCc2ccccc2)CCC1=O
ring closure, yield of all isomers ([3]; from CNCCC(=O)N1C[C@H](NC(=O)OC(C)(C)C)C[C@H]1COc1ccc(F)cc1C(=O)N(C)[C@@H](CCC(=O)O)C(=O)OCc1ccccc1, T3P / i-Pr2NEt, CH2Cl2, 10.6 mM): 82%

Compound: CN1CC(=O)N2C[C@H](NC(=O)OC(C)(C)C)C[C@H]2COc2ccc(F)cc2C(=O)N(C)[C@H](C(=O)OCc2ccccc2)CCC1=O
ring closure, yield of all isomers ([3]; from CNCC(=O)N1C[C@H](NC(=O)OC(C)(C)C)C[C@H]1COc1ccc(F)cc1C(=O)N(C)[C@@H](CCC(=O)O)C(=O)OCc1ccccc1, T3P, CH2Cl2, 10.5 mM, 25.0 °C, 20.0 h): 87%

Compound: CN1C(=O)c2cc(F)ccc2OC[C@@H]2C[C@H](NC(=O)OCC[Si](C)(C)C)CN2C(=O)CC[C@H]1C(=O)OCc1ccccc1
ring closure, yield of all isomers ([3]; from CN(C(=O)c1cc(F)ccc1OC[C@@H]1C[C@H](NC(=O)OCC[Si](C)(C)C)CN1)[C@@H](CCC(=O)O)C(=O)OCc1ccccc1, T3P, CH2Cl2, 10.0 mM, 25.0 °C, 20.0 h): 61%

Compound: CN1C[C@H](NC(=O)OCc2ccccc2)C(=O)N(C)CC(=O)N2C[C@@H](NC(=O)OC(C)(C)C)C[C@H]2COc2cncc(c2)C1=O [Ex. 272, benzyl N-[(4S,6S,13S)-6-[(tert-butoxycarbonyl)amino]-11,15-dimethyl-9,12,16-trioxo-2-oxa-8,11,15,19-tetraazatricyclo[15.3.1.0^4,8]henicosa-1(21),17,19-trien-13-yl]carbamate]
Metabolic Stability T½ [min] hum ([1]; both, 10 µM): > 60 min
Metabolic Stability 60 min hum [% remain.] ([1]; both, 10 µM): 65 % remain.
Metabolic Stability T½ [min] mouse ([2]; both, 10 µM): > 60 min
Metabolic Stability 60 min mouse [% remain.] ([2]; both, 10 µM): 81 % remain.
ring closure, yield of all isomers ([3]; from CNCC(=O)N1C[C@@H](NC(=O)OC(C)(C)C)C[C@H]1COc1cncc(C(=O)N(C)C[C@H](NC(=O)OCc2ccccc2)C(=O)O)c1, T3P, i-Pr2NEt, CH2Cl2, 9.75 mM): 38%
Plasma Stability T½ [min] mouse (in vitro [4]): > 240 min
Plasma Stability 240 min mouse [% remain.] (in vitro [4]): 92 % remain.
Plasma Stability T½ [min] hum (in vitro [5]): > 240 min
Plasma Stability 240 min hum [% remain.] (in vitro [5]): 95 % remain.

Compound: O=C1NCCC[C@H](O)C(=O)N2C[C@@H](OCc3ccc(Br)cc3)C[C@H]2COc2cccc1c2
ring closure, yield of all isomers ([3]; from O=C(NCCC[C@H](O)C(=O)O)c1cccc(OC[C@@H]2C[C@H](OCc3ccc(Br)cc3)CN2)c1, T3P, i-Pr2NEt, CH2Cl2, 1.0 mM): 47%

Compound: CN1C[C@@H](NC(=O)OCc2ccccc2)C(=O)N(C)CC(=O)N2C[C@@H](NC(=O)OC(C)(C)C)C[C@H]2COc2cccc(c2)C1=O
ring closure, yield of all isomers ([3]; from CNCC(=O)N1C[C@@H](NC(=O)OC(C)(C)C)C[C@H]1COc1cccc(C(=O)N(C)C[C@@H](NC(=O)OCc2ccccc2)C(=O)O)c1, FDPP, DMF, 1.0 mM, 60.0 °C, 20.0 h): 78%

Compound: CN1CC(=O)N2C[C@@H](NC(=O)OCC[Si](C)(C)C)C[C@H]2COc2cccc3c2C[C@@](NC(=O)OC(C)(C)C)(CC3)C(=O)N(C)C[C@H](NC(=O)OCc2ccccc2)C1=O
ring closure, yield of all isomers ([3]; from CN(CC(=O)O)C(=O)[C@H](CN(C)C(=O)[C@]1(NC(=O)OC(C)(C)C)CCc2cccc(OC[C@@H]3C[C@H](NC(=O)OCC[Si](C)(C)C)CN3)c2C1)NC(=O)OCc1ccccc1, T3P, i-Pr2NEt, CH2Cl2, 10.0 mM, 2.0 h): 44%

Compound: Cc1c2c3cc(ccc3n1C)OC[C@@H]1C[C@@H](NC(=O)OC(C)(C)C)CN1C(=O)CN(C)C(=O)CC[C@@H](C(=O)OCc1ccccc1)N(C)C2=O
ring closure, yield of all isomers ([3]; from CNCC(=O)N1C[C@H](NC(=O)OC(C)(C)C)C[C@H]1COc1ccc2c(c1)c(C(=O)N(C)[C@@H](CCC(=O)O)C(=O)OCc1ccccc1)c(C)n2C, T3P, CH2Cl2, 9.85 mM): 58%

Compound: CN1CC(=O)N2C[C@@H](NC(=O)OC(C)(C)C)C[C@H]2COc2ccc(F)cc2C(=O)N(C)[C@H](C(=O)OCc2ccccc2)CCC1=O
ring closure, yield of all isomers ([3]; from CNCC(=O)N1C[C@@H](NC(=O)OC(C)(C)C)C[C@H]1COc1ccc(F)cc1C(=O)N(C)[C@@H](CCC(=O)O)C(=O)OCc1ccccc1, FDPP, DMF, 8.44 mM, 25.0 °C, 20.0 h): 94%

Compound: CN1CCC[C@H](NC(=O)OCc2ccccc2)C(=O)N2C[C@@H](Cc3ccccc3)C[C@H]2COc2cccc(c2)C1=O
ring closure, yield of all isomers ([3]; from CN(CCC[C@H](NC(=O)OCc1ccccc1)C(=O)O)C(=O)c1cccc(OC[C@@H]2C[C@H](Cc3ccccc3)CN2)c1, T3P, CH2Cl2, 4.5 mM, 25.0 °C, 0.5 h): 37%

Compound: CN1CC(=O)N2C[C@H](NC(=O)OC(C)(C)C)C[C@H]2CSc2cccc(c2)C(=O)N(C)[C@H](C(=O)OCc2ccccc2)CCC1=O
ring closure, yield of all isomers ([3]; from CNCC(=O)N1C[C@H](NC(=O)OC(C)(C)C)C[C@H]1CSc1cccc(C(=O)N(C)[C@@H](CCC(=O)O)C(=O)OCc2ccccc2)c1, T3P, i-Pr2NEt, CH2Cl2, 10.0 mM, 25.0 °C, 3.0 h): 57%
